Test results taken from the CheMixHub viscosity set.
Where “and” joins values, the source holds several entries; their conditions need not be identical. Identical values can stand only once.

Assay: xn = mol fraction of the nth substance listed

COC[N+]1(C)CCCC1.O=S(=O)([N-]S(=O)(=O)C(F)(F)F)C(F)(F)F + O
101 kPa, x2 = 0.1527
Settings | viscosity [mPa·s]
293.15 K | 35.2
298.15 K | 29.4
303.15 K | 24.8
313.15 K | 18.1
323.15 K | 13.8

C[N+](C)(C)CCO.O=C([O-])C(F)(F)F + O
Settings | viscosity [mPa·s]
298 K, 101.33 kPa, x2 = 0.8 | 7.7

O=S(=O)([O-])[O-].[Li+].[Li+] + O
Settings | viscosity
293.15 K, 101 kPa, x1 = 0.007256 | 1.26 mPa·s
293.15 K, 101 kPa, x1 = 0.01412 | 1.55 mPa·s
293.15 K, 101 kPa, x1 = 0.02103 | 1.89 mPa·s
293.15 K, 101 kPa, x1 = 0.02766 | 2.31 mPa·s
293.15 K, 101 kPa, x1 = 0.03404 | 2.82 mPa·s
293.15 K, 101 kPa, x1 = 0.04479 | 4.02 mPa·s
293.15 K, 101 kPa, x1 = 0.05103 | 5.05 mPa·s
293.15 K, 101 kPa, x1 = 0.05234 | 5.28 mPa·s
293.15 K, 101 kPa, x1 = 0.05329 | 5.47 mPa·s
293.15 K, 101 kPa, x1 = 0.05449 | 5.71 mPa·s
298.15 K, 101 kPa, x1 = 0.007256 | 1.12 mPa·s
298.15 K, 101 kPa, x1 = 0.00868 | 1.152 mPa·s and 1.152 mPa·s
298.15 K, 101 kPa, x1 = 0.01412 | 1.38 mPa·s
298.15 K, 101 kPa, x1 = 0.02103 | 1.69 mPa·s
298.15 K, 101 kPa, x1 = 0.02192 | 1.705 mPa·s and 1.705 mPa·s
298.15 K, 101 kPa, x1 = 0.02766 | 2.05 mPa·s
298.15 K, 101 kPa, x1 = 0.03404 | 2.49 mPa·s
298.15 K, 101 kPa, x1 = 0.03935 | 2.947 mPa·s and 2.947 mPa·s
298.15 K, 101 kPa, x1 = 0.04479 | 3.49 mPa·s
298.15 K, 101 kPa, x1 = 0.05103 | 4.36 mPa·s
298.15 K, 101 kPa, x1 = 0.05234 | 4.57 mPa·s
298.15 K, 101 kPa, x1 = 0.05329 | 4.71 mPa·s
298.15 K, 101 kPa, x1 = 0.05449 | 4.95 mPa·s
298.15 K, 101.33 kPa, x1 = 0.05143 | 2.05 mPa·s
298.15 K, 101.33 kPa, x1 = 0.05627 | 3.659 mPa·s
300.15 K, 101 kPa, x1 = 0.05329 | 4.47 mPa·s
300.15 K, 101 kPa, x1 = 0.05449 | 4.7 mPa·s
303.15 K, 101 kPa, x1 = 0.007256 | 0.99 mPa·s
303.15 K, 101 kPa, x1 = 0.01412 | 1.22 mPa·s
303.15 K, 101 kPa, x1 = 0.02103 | 1.51 mPa·s
303.15 K, 101 kPa, x1 = 0.02766 | 1.82 mPa·s
303.15 K, 101 kPa, x1 = 0.03404 | 2.21 mPa·s
303.15 K, 101 kPa, x1 = 0.04479 | 3.06 mPa·s
303.15 K, 101 kPa, x1 = 0.05103 | 3.81 mPa·s
303.15 K, 101 kPa, x1 = 0.05234 | 3.99 mPa·s
303.15 K, 101 kPa, x1 = 0.05329 | 4.11 mPa·s
303.15 K, 101 kPa, x1 = 0.05449 | 4.3 mPa·s
305.15 K, 101 kPa, x1 = 0.05329 | 3.89 mPa·s
305.15 K, 101 kPa, x1 = 0.05449 | 4.1 mPa·s
308.15 K, 101 kPa, x1 = 0.05103 | 3.33 mPa·s
308.15 K, 101 kPa, x1 = 0.05234 | 3.49 mPa·s
308.15 K, 101 kPa, x1 = 0.05329 | 3.57 mPa·s
310.15 K, 101 kPa, x1 = 0.05329 | 3.39 mPa·s
311.15 K, 101 kPa, x1 = 0.05234 | 3.25 mPa·s
312.15 K, 101 kPa, x1 = 0.05329 | 3.24 mPa·s
313.15 K, 101 kPa, x1 = 0.007256 | 0.8 mPa·s
313.15 K, 101 kPa, x1 = 0.01412 | 0.99 mPa·s
313.15 K, 101 kPa, x1 = 0.02103 | 1.21 mPa·s
313.15 K, 101 kPa, x1 = 0.02766 | 1.49 mPa·s
313.15 K, 101 kPa, x1 = 0.03404 | 1.76 mPa·s
313.15 K, 101 kPa, x1 = 0.04479 | 2.42 mPa·s
313.15 K, 101 kPa, x1 = 0.05103 | 2.96 mPa·s
313.15 K, 101 kPa, x1 = 0.05234 | 3.1 mPa·s
313.15 K, 101 kPa, x1 = 0.05329 | 3.17 mPa·s
314.15 K, 101 kPa, x1 = 0.05329 | 3.11 mPa·s
316.15 K, 101 kPa, x1 = 0.05234 | 2.89 mPa·s
318.15 K, 101 kPa, x1 = 0.05103 | 2.65 mPa·s
318.15 K, 101 kPa, x1 = 0.05234 | 2.77 mPa·s
320.15 K, 101 kPa, x1 = 0.05234 | 2.66 mPa·s
323.15 K, 101 kPa, x1 = 0.00868 | 0.7 mPa·s
323.15 K, 101 kPa, x1 = 0.02192 | 1.014 mPa·s
323.15 K, 101 kPa, x1 = 0.03935 | 1.669 mPa·s
323.15 K, 101 kPa, x1 = 0.05103 | 2.37 mPa·s
323.15 K, 101 kPa, x1 = 0.05234 | 2.52 mPa·s
323.15 K, 101.33 kPa, x1 = 0.05088 | 1.378 mPa·s

OC(C(F)(F)F)C(F)(F)F + O
viscosity [mPa·s], 101 kPa
Settings | 298.15 K | 303.15 K | 313.15 K | 323.15 K
x1 = 0.002095 | 0.921 | 0.824 | 0.671 | 0.559
x1 = 0.004456 | 0.959 | 0.857 | 0.691 | 0.575
x1 = 0.008636 | 1.027 | 0.911 | 0.73 | 0.602
x1 = 0.01141 | 1.076 | 0.951 | 0.756 | 0.621
x1 = 0.0205 | 1.22 | 1.069 | 0.84 | 0.682
x1 = 0.0264 | 1.31 | 1.147 | 0.897 | 0.727
x1 = 0.04493 | 1.583 | 1.383 | 1.075 | 0.869
x1 = 0.06872 | 1.854 | 1.606 | 1.246 | 0.997
x1 = 0.09912 | 2.077 | 1.797 | 1.377 | 1.094
x1 = 0.1716 | 2.251 | 1.93 | 1.463 | 1.147
x1 = 0.2057 | 2.246 | 1.934 | 1.459 | 1.142
x1 = 0.3052 | 2.102 | 1.83 | 1.4 | 1.086
x1 = 0.4208 | 1.879 | 1.633 | 1.262 | 1.004
x1 = 0.5004 | 1.76 | 1.541 | 1.202 | 0.964
x1 = 0.6306 | 1.636 | 1.433 | 1.119 | 0.907
x1 = 0.6778 | 1.606 | 1.405 | 1.102 | 0.883
x1 = 0.7422 | 1.585 | 1.39 | 1.077 | 0.864
x1 = 0.8064 | 1.575 | 1.374 | 1.049 | 0.849
x1 = 0.8456 | 1.575 | 1.372 | 1.045 | 0.833
